# “And” between values parts separate entries of the source, which are not always exact repeats. Equal entries are not always repeated. Where two headings read alike, the source gives them in different places.
# What was measured:
# [1] = tested on: human PBMC; experiment: Cytotoxicity (cell viability) of M2 against human PBMC; type: cell-based; details: for Total Cell Count (% survival): mean ± SD of five experiments
# Description: Peripheral blood mononuclear cells (PBMC) were isolated from normal human blood and were maintained in RPMI supplemented with 10% FBS, 100 μg/ml streptomycin and 50 units/ml penicillin, at 37° C. in a humidified incubator containing 5% CO2. […] The doses that were tested ranged between 0.5433×10^−7 μM to 35 μM.
# [2] = tested on: A 549: Lung Cancer cell with wild type p53; experiment: Cytotoxicity against cancer cell lines: A 549; type: cell-based
# Description: (§1) Cancer cell lines with functional or disrupted p53 expression were maintained in ATCC recommended culture media supplemented with 10% FBS, 100 μg/ml streptomycin and 50 units/ml penicillin, at 37° C. in a humidified incubator containing 5% CO2. For experiments, cells (10^6) were plated with 2% serum and then the required experiments were performed. […] Simultaneously, the effect of the compound was also investigated in one p53 mutated breast cancer cell line and in one cervical cancer cell line with disrupted p53 pathway.
# [3] = tested on: HepG2: Liver Cancer cell with wild type p53; experiment: Cytotoxicity against cancer cell lines: HepG2; type: cell-based
# Description: as §1
# [4] = tested on: MCF-7: Breast Cancer cell with p53 wild type; experiment: Cytotoxicity against cancer cell lines: MCF-7; type: cell-based
# Description: as §1
# [5] = tested on: MDA MB 231: Breast Cancer cell with p53 mutation; experiment: Cytotoxicity against cancer cell lines: MDA MB 231; type: cell-based
# Description: as §1
# [6] = tested on: HeLA: Cervical Cancer Cell with unstable P53; experiment: Cytotoxicity against cancer cell lines: HeLA; type: cell-based
# Description: as §1
# [7] = tested on: MDA MB 231 (p53 mutated); experiment: Cell cycle analysis of M2 treated p53 mutated breast cancer cell line (PI flowcytometry); type: cell-based; details: 12 hour exposure
# Description: Cell cycle analyses were performed with the p53 mutated breast cancer cell line to explore deeper into the probable mechanism. […] For experiments, cells (10^6) were plated with 2% serum and then the required experiments were performed. Cells were harvested after 12 hour exposure with the compound at varying concentrations and cell cycle phase distribution of nuclear DNA was determined by flowcytometry using propidium iodide (PI) as DNA-binding fluorochrome.
# Analyses of the cells in sub GO phase and S/G2/M are given as mean±Standard Deviation of five independent experiments.
# [8] = tested on: Sarcoma 180 cells; experiment: Cytotoxicity study against Sarcoma 180 cells in vitro; type: cell-based, murine; details: Sarcoma 180 (in vitro)
# Description: Before entering into the in vivo experiments with solid transplantable tumour model of sarcoma 180, the drug's efficacy was tested against the same tumor cell in vitro.
# [9] = tested on: S-180 tumor cells
# Excerpt: (§2) For the determination of cell cycle phase distribution of nuclear DNA, cells from bone marrow and tumor tissue (1×10^6 cells) were harvested from tumor bearing untreated and treated mice.
# [10] = tested on: bone marrow cells
# Excerpt: as §2
# [11] = tested on: S-180 tumor cells; experiment: Comet assay in sarcoma tumor cells from treated mice (apoptosis); type: in vivo, Swiss albino mice; details: S-180 bearing mice, vs untreated sarcoma control
# Description: Comet assay is a sensitive, reliable, and rapid method for DNA damage evaluation. The segmented DNA emigrates from the nucleus towards the anode under an electrical current to produce comets. About 400 μl of the cell suspension was mixed with 800 μl 1% low melting point agarose. Then 100 μl of the mixture was layered on slides precoated with a 1% normal melting point agarose and then covered with a cover slip. The slides were then placed in a refrigerator for 5 min. Then cover slips were carefully removed and the slides were left in a dark place except for the positive control slides. The positive control slides were treated with 200 μM H2O2 solution for 17 min at 4° C., while the negative control slides remained untreated. Then all the slides were immersed in cold lysis solution (2.5 M NaCl, 100 mM EDTA, 0.2 M NaOH, 10 mM Tris, 1% Triton X-100, pH=10), protected from light and refrigerated at 4° C. for 45 min. Slides were then left in freshly prepared electrophoresis solution (0.3 M NaOH, 1 mM EDTA, pH>13,) for 40 min. Electrophoresis was performed using the same solution at 300 mA, 25 V for 45 min. After electrophoresis the slides were neutralized gently with 0.4 M Tris buffer at pH 7.5 for 10 min and stained with 20 μg/ml ethidium bromide for 7 min. […] Comets were counted in four to five different fields of a section, and data are summarized in terms of percent comet. […]
# [12] = Serum biochemical markers of toxicity (ALT, AST, ALP, creatinine); type: in vivo, Swiss albino mice; details: all M2 treated groups except the highest dose (40 μM)
# Description: Alanine aminotransferase (ALT), aspartate aminotransferase (AST), alkaline phosphatase (ALP) and creatinine levels were measured from collected sera using kits (Sigma).
# [13] = Description: (§3) The homogenate was then centrifuged at 10,000 g at 4° C. for 20 mins.
# The amount of malondialdehyde was measured by reaction with thiobarbituric acid at 532 nm using spectrophotometer. MDA levels were calculated using the standard curve of malondialdehyde and its level expressed in nM/mg of protein.
# [14] = tested on: SOD, CAT and GST
# Description: as §3
# Briefly, assay mixture consists of 3 mL of H2O2 phosphate buffer and 0.05 mL of the supernatant of the tissue homogenate. The change in absorbance was recorded for 2 min at 30 s interval at 240 nm using spectrophotometer.
# One unit of enzyme activity is defined as the amount of enzyme necessary for inhibiting the reaction by 50%. Auto oxidation of Pyrogallol in Tris-HCL buffer (50 mM, pH 7.5) is measured by increase in absorbance at 420 nm.
# [15] = tested on: bone marrow cells; type: in vivo, Swiss albino mice; details: S-180 tumor bearers
# Excerpt: (§4) The cells were resuspended in RPMI-1640.
# [16] = tested on: Nrf-2; experiment: Western blot of Nrf-2 in liver; type: in vivo, Swiss albino mice; details: S-180 tumor bearers, compared to sarcoma control
# Description: (§5) Cell lysates were obtained and equal amounts of protein from each sample were diluted with loading buffer, denatured, and separated by 10% sodium dodecyl sulfate-polyacrylamide gel electrophoresis (SDS-PAGE) followed by protein transfer to polyvinylidene fluoride membranes (PVDF). […] Proteins were detected by incubation with corresponding primary antibodies (anti p53, anti-p21, anti-Nrf-2, anti-ERK3 and anti-PCNA) antibodies followed by blotting with AP-conjugated secondary antibody. The blots were then exposed to NBT/BCIP substrate for detection. This analysis was performed three times.
# [17] = tested on: PCNA; experiment: Western blot of PCNA in bone marrow; type: in vivo, Swiss albino mice; details: all M2 treated groups, compared to sarcoma control
# Description: as §5
# [18] = tested on: PCNA; experiment: Western blot of PCNA in tumor tissue; type: in vivo, Swiss albino mice; details: S-180 tumor tissue
# Description: as §5
# [19] = tested on: ERK; experiment: Western blot of ERK in tumor tissue; type: in vivo, Swiss albino mice; details: S-180 tumor tissue, compared to sarcoma control and cyclophosphamide treated groups
# Description: as §5
# [20] = tested on: Ehrlich's ascites carcinoma (EAC); experiment: Ehrlich's ascites carcinoma (EAC) tumor model: tumor volume and cell count; type: in vivo; details: EAC bearing mice, 35 μM, vs EAC control and cyclophosphamide treated
# Excerpt: Ehrlich's ascites carcinoma (EAC) cells were maintained by serial intra-peritoneal passage of 10^5 cells per mice. EAC cells were collected from tumor-bearing mice at the exponential phase of growth, roughly 7 days after tumor transplant. The cells were drawn out aseptically with the help of a fine needle. The cells were washed in PBS and counted with the help of a Hemocytometer by the Trypan Blue dye exclusion test. The cells were suspended in PBS and inoculated into the next batch of mice.
# [21] = tested on: bone marrow cells; type: in vivo; details: EAC tumor bearing mice
# Excerpt: as §4
# [22] = tested on: human PBMC; experiment: Cytotoxicity (cell viability) of M2 against human PBMC; type: cell-based; details: highest dose 30 μM
# [23] = target: G-Quadruplex 5′-TAGGG(TTAGGG)3-3′; experiment: Fluorescence emission titration with G-Quadruplex; details: read-out: equilibrium dissociation constant (KD); from change in fluorescence emission maxima of G-Quadruplex
# Description: The emission spectra of a DNA duplex and G-Quadruplex sequence were recorded at room temperature using Hitachi spectrometer (F-700 FL spectrophotometer) with one cm path-length quartz cuvette. The emission spectrum was recorded from 300-500 nm with an excitation wavelength of 260 nm. Excitation and emission slits were set to 5 nm each. Emission spectra were recorded by titrating small molecules up to 50 μM concentration against 10 μM G-Quadruplex and duplex DNA.
# [24] = S-180 tumor bearers, cyclophosphamide treatment
compound,measurement,setting,value
"CN(CCC#N)c1ccc(C=NCCCN=Cc2ccc(N(C)CCC#N)cc2)cc1 [M2, Bis(3-[4-({[3-({4-[(2 cyanoethyl)(methyl)amino]benzylidene}amino)propyl]imino}methyl)(methyl)anilino]propanenitrile)]",effect on the viability of human PBMC,[1]; doses 0.1 to 25 μM,negligible effect
same,PBMC that could not survive the treatment,"[1]; human PBMC, 35 μM, 12 hours",~25%
same,Total Cell Count (% survival),"[1]; human PBMC, dose 1 μM",90.67 ± 2.16%
same,Total Cell Count (% survival),"[1]; human PBMC, dose 5 μM",89.50 ± 1.05%
same,Total Cell Count (% survival),"[1]; human PBMC, dose 10 μM",88.67 ± 1.75%
same,Total Cell Count (% survival),"[1]; human PBMC, dose 15 μM",88.83 ± 1.47%
same,Total Cell Count (% survival),"[1]; human PBMC, dose 20 μM",87.33 ± 1.97%
same,Total Cell Count (% survival),"[1]; human PBMC, dose 25 μM",85.17 ± 1.94%
same,Total Cell Count (% survival),"[1]; human PBMC, dose 30 μM",77.67 ± 3.44%
same,Death Percentages,"[2]; A 549, dose 15 μM",26 ± 4.32%
same,Death Percentages,"[2]; A 549, dose 20 μM",34.25 ± 4.35%
same,Death Percentages,"[2]; A 549, dose 25 μM",47.75 ± 6.34%
same,Death Percentages,"[3]; HepG2, dose 15 μM",20.75 ± 5.25%
same,Death Percentages,"[3]; HepG2, dose 20 μM","38.5 ± 6.25%,"
same,Death Percentages,"[3]; HepG2, dose 25 μM",55.86 ± 7.12%
same,Death Percentages,"[4]; MCF-7, dose 15 μM",23.00 ± 7.26%
same,Death Percentages,"[4]; MCF-7, dose 20 μM",32.5 ± 2.89%
same,Death Percentages,"[4]; MCF-7, dose 25 μM",41.5 ± 2.65%
same,Death Percentages,"[5]; MDA MB 231, dose 15 μM",36.50 ± 5.00%
same,Death Percentages,"[5]; MDA MB 231, dose 20 μM",47.00 ± 6.78%
same,Death Percentages,"[5]; MDA MB 231, dose 25 μM",60% and 60.25 ± 9.03%
same,Death Percentages,[6]; dose 15 μM,20.5 ± 4.20%
same,Death Percentages,[6]; dose 20 μM,37.75 ± 5.44%
same,Death Percentages,[6]; dose 25 μM,46.75 ± 5.38%
same,% S/G2/M as from cell cycle analysis,"[7]; MDA MB 231, dose 15 μM",10.76 ± 1.38%
same,% Sub G0 as from cell cycle analysis,"[7]; MDA MB 231, dose 15 μM",16.08 ± 2.28%
same,% S/G2/M as from cell cycle analysis,"[7]; MDA MB 231, dose 20 μM",12.09 ± 1.77%
same,% Sub G0 as from cell cycle analysis,"[7]; MDA MB 231, dose 20 μM",27.38 ± 2.28%
same,% S/G2/M as from cell cycle analysis,"[7]; MDA MB 231, dose 25 μM",16.94 ± 4.82%
same,% Sub G0 as from cell cycle analysis,"[7]; MDA MB 231, dose 25 μM",30.50 ± 4.96%
same,Death Percentages,[8]; dose 15 μM,36.67 ± 6.12%
same,Death Percentages,[8]; dose 20 μM,50.33 ± 5.03%
same,Death Percentages,[8]; dose 25 μM,57.33 ± 4.16%
same,hypoploid cells (sub-G0 region) of tumor cells,"[9]; mouse, in vivo",39.94% and 69.2% and 41.5%
same,proliferative stage (sum of S and G2/M) of tumor cells,"[9]; mouse, in vivo",distinctive depression
same,bone marrow hypoploidy peak,"[10]; mouse, in vivo",5.4%
same,bone marrow proliferative phase,"[10]; mouse, in vivo",did not decrease
same,DNA damage in tumor cells (percentage of comet cells per field),[11],significant DNA damage
same,"Serum ALT, AST, ALP values and creatinine levels",[12],within the normal range
same,hepatic LPO levels (oxidative stress),"[13]; mouse, in vivo",significant decrease
same,"activity of hepatic anti-oxidant enzymes SOD, CAT and GST","[14]; mouse, in vivo",increase
same,bone marrow cell count / bone marrow suppression,[15],did not cause bone marrow suppression
same,Nrf-2 expression in the liver,[16],increased
same,PCNA expression in bone marrow,[17],significant increase
same,PCNA expression in tumor tissues,[18],decrease
same,expression of ERK in tumor tissues,[19],significantly reduce
same,tumor cell count,[20],significant reduction
same,tumor volume,[20],significant reduction
same,effect on bone marrow (cell count),[21],protective effect
same,cytotoxic effect on human PBMC,[22],cytotoxic effect
same,Kd,[23],31 ± 1.2 µM
"O=P1(N(CCCl)CCCl)NCCCO1 (stereo not shown) [cyclophosphamide, reference compound]",hypoploid cells (sub-G0 region) of tumor cells,"[9]; S-180 bearing mice, cyclophosphamide treated group",42.1%
same,bone marrow hypoploidy peak,[10]; [24],48.5%
same,bone marrow proliferative phases (S and G2/M combined),[10]; [24],3%
same,hepatic LPO levels (oxidative stress),"[13]; liver of S-180 tumor bearers, vs sarcoma control",further enhanced
same,"activity of hepatic anti-oxidant enzymes SOD, CAT and GST","[14]; liver of S-180 tumor bearers, vs normal and sarcoma control",depression
same,bone marrow cell count / bone marrow suppression,[15],significant depression
same,effect on bone marrow (cell count),[21],induces myelosuppression

# Source: patent US9682926B2, “Cancer chemotherapeutic agent/formulation, manufacture and use thereof” (Bose Institute, priority 2012, dated 2017)
